Data taken from the CheMixHub ionic liquid set.

Assay: xn = mol fraction of the nth substance listed

CCCCC[N+](CCCCC)(CCCCC)CCCCC.[Br-] + CCCCCCCCCCCC[N+](C)(C)C.[Br-] + O
viscosity [mPa·s], 100 kPa
Settings | x2 = 5.425e-05, x1 = 0.0001802 | x2 = 0.0001085, x1 = 0.0001801 | x2 = 0.0001627, x1 = 0.0001801 | x2 = 0.000217, x1 = 0.0001801 | x2 = 0.0002712, x1 = 0.0001801 | x2 = 0.0003254, x1 = 0.0001801 | x2 = 0.0003796, x1 = 0.0001801 | x2 = 0.0004339, x1 = 0.0001801 | x2 = 0.0004881, x1 = 0.0001801 | x2 = 0.0005422, x1 = 0.0001801
293.15 K | 1.057 | 1.059 | 1.06 | 1.061 | 1.062 | 1.062 | 1.063 | 1.063 | 1.063 | 1.064
298.15 K | 0.943 | 0.944 | 0.945 | 0.946 | 0.948 | 0.949 | 0.95 | 0.951 | 0.951 | 0.953
303.15 K | 0.825 | 0.826 | 0.826 | 0.827 | 0.827 | 0.827 | 0.828 | 0.828 | 0.828 | 0.829
308.15 K | 0.745 | 0.746 | 0.746 | 0.746 | 0.747 | 0.747 | 0.747 | 0.748 | 0.748 | 0.749
313.15 K | 0.679 | 0.68 | 0.681 | 0.681 | 0.682 | 0.682 | 0.682 | 0.682 | 0.683 | 0.683
318.15 K | 0.624 | 0.625 | 0.625 | 0.625 | 0.626 | 0.626 | 0.626 | 0.626 | 0.626 | 0.627

OCC(O)CO + CCCCCCCCCCCC[P+](CC)(CC)CC.N#Cc1ccc[n-]1
100 kPa, x2 = 0
Settings | viscosity [mPa·s]
293.15 K | 1360
298.15 K | 860
303.15 K | 542
313.15 K | 217

II + CCCCCCCCCCCC[n+]1ccn(C)c1.[I-]
Settings | electrical conductivity [S/m]
298 K, 101.3 kPa, x2 = 0.2 | 2.02

CCCCOC(C)=O + CCCCCCCCn1cc[n+](C)c1.F[B-](F)(F)F
Settings | viscosity [mPa·s]
298.15 K, 101 kPa, x1 = 1 | 0.7

[Br-].[Li+] + CCCCCCCCn1cc[n+](C)c1.N#C[S-] + CN1CCCC1=O
298.15 K, 101 kPa
Settings | viscosity [mPa·s]
x2 = 0, x1 = 0.02595 | 2.385
x2 = 0, x1 = 0.05088 | 3.13
x2 = 0, x1 = 0.07505 | 4.349
